Test results reported in PMC8217170, “Phase Ib dose-escalation study of the hypoxia-modifier Myo-inositol trispyrophosphate in patients with hepatopancreatobiliary tumors” (Nature Communications, 2021).
Several values for one entry are separate records, joined by “and”; a condition that tells them apart may be missing. Equal values may be shown once.

Test: Plasma levels and pharmacokinetics of intravenous ITPP
[1] = individual patients, cohort 1 (1866 mg/m2)
[2] = individual patients, cohort 2 (3732 mg/m2)

Question: For `O=P1(O)OC2C3OP(=O)(O)OP(=O)(O)OC3C3OP(=O)(O)OP(=O)(O)OC3C2OP(=O)(O)O1` (centres unmarked) [ITPP, Myo-inositol trispyrophosphate], which “ITPP plasma levels: Concentration” value (cohort 2, patient 7, day 2, hour 0, sample 8_2_1) is on record?
Answer: Its value is 0 µg/mL.

Question: What about the “ITPP plasma levels, Concentration” value (cohort 2, patient 7, day 2, hour 9) of the same compound?
Answer: Its value is 98.6 µg/mL.

Question: And the “ITPP plasma levels, Concentration” value (cohort 2, patient 7, day 3, hour 0)?
Answer: Its value is 0 µg/mL.

Question: And the “ITPP plasma levels, Concentration” value (cohort 2, patient 7, day 3, hour 9)?
Answer: The value was 93.7 µg/mL.

Question: And the AUC (cohort 3, 5600 mg/m2)?
Answer: Its AUC is 1168.7 µg·h/mL.

Question: And the AUMC (cohort 3, 5600 mg/m2)?
Answer: Its AUMC is 6445.9 h2*mg/L.

Question: And the CL (cohort 3, 5600 mg/m2)?
Answer: Its CL is 4.4 L/h.

Question: What about the Clast (cohort 3, 5600 mg/m2) of the same compound?
Answer: The Clast was 59.5 µg/mL.

Question: What about the Cmax (cohort 3, 5600 mg/m2) of the same compound?
Answer: Its Cmax is 153.4 µg/mL.

Question: And the Cmin (cohort 3, 5600 mg/m2)?
Answer: The Cmin was 0 ng/mL.

Question: What about the “Elimination rate λz” value (cohort 3, 5600 mg/m2) of the same compound?
Answer: The value was 0.5 h⁻¹.

Question: What about the “Half life/T0.5” value (cohort 3, 5600 mg/m2) of the same compound?
Answer: Its value is 1.4 h.

Question: And the MRT (cohort 3, 5600 mg/m2)?
Answer: Its MRT is 1.5 h.

Question: And the Tlast (cohort 3, 5600 mg/m2)?
Answer: Its Tlast is 10.0 h.

Question: And the Tmax (cohort 3, 5600 mg/m2)?
Answer: The Tmax was 6.0 h.

Question: And the VSS (cohort 3, 5600 mg/m2)?
Answer: The VSS was 9.2 L.

Question: What about the AUC (cohort 4, 7000 mg/m2) of the same compound?
Answer: The AUC was 1649.5 µg·h/mL.

Question: What about the AUMC (cohort 4, 7000 mg/m2) of the same compound?
Answer: The AUMC was 9421.8 h2*mg/L.

Question: What about the CL (cohort 4, 7000 mg/m2) of the same compound?
Answer: The CL was 3.1 L/h.

Question: What about the Clast (cohort 4, 7000 mg/m2) of the same compound?
Answer: Its Clast is 127.5 µg/mL.

Question: And the Cmax (cohort 4, 7000 mg/m2)?
Answer: Its Cmax is 228.0 µg/mL.

Question: And the Cmin (cohort 4, 7000 mg/m2)?
Answer: The Cmin was 0 ng/mL.

Question: What about the “Elimination rate λz” value (cohort 4, 7000 mg/m2) of the same compound?
Answer: The value was 0.2 h⁻¹.

Question: What about the “Half life/T0.5” value (cohort 4, 7000 mg/m2) of the same compound?
Answer: The value was 3.3 h.

Question: What about the MRT (cohort 4, 7000 mg/m2) of the same compound?
Answer: Its MRT is 1.7 h.

Question: And the Tlast (cohort 4, 7000 mg/m2)?
Answer: Its Tlast is 10.0 h.

Question: And the Tmax (cohort 4, 7000 mg/m2)?
Answer: Its Tmax is 6.0 h.

Question: And the VSS (cohort 4, 7000 mg/m2)?
Answer: The VSS was 12.8 L.

Question: And the AUC (cohort 5, 8750 mg/m2)?
Answer: Its AUC is 1850.5 µg·h/mL.

Question: What about the AUMC (cohort 5, 8750 mg/m2) of the same compound?
Answer: The AUMC was 10396.4 h2*mg/L.

Question: And the CL (cohort 5, 8750 mg/m2)?
Answer: Its CL is 4.0 L/h.

Question: And the Clast (cohort 5, 8750 mg/m2)?
Answer: The Clast was 116.8 µg/mL.

Question: What about the Cmax (cohort 5, 8750 mg/m2) of the same compound?
Answer: Its Cmax is 257.8 µg/mL.

Question: And the Cmin (cohort 5, 8750 mg/m2)?
Answer: The Cmin was 0 ng/mL.

Question: And the “Elimination rate λz” value (cohort 5, 8750 mg/m2)?
Answer: Its value is 0.3 h⁻¹.

Question: What about the “Half life/T0.5” value (cohort 5, 8750 mg/m2) of the same compound?
Answer: The value was 2.1 h.

Question: And the MRT (cohort 5, 8750 mg/m2)?
Answer: The MRT was 1.6 h.

Question: What about the Tlast (cohort 5, 8750 mg/m2) of the same compound?
Answer: The Tlast was 10.0 h.

Question: What about the Tmax (cohort 5, 8750 mg/m2) of the same compound?
Answer: The Tmax was 6.0 h.

Question: And the VSS (cohort 5, 8750 mg/m2)?
Answer: Its VSS is 11.1 L.

Question: What about the AUC (cohort 6, 10500 mg/m2) of the same compound?
Answer: The AUC was 2439.2 µg·h/mL.

Question: What about the AUMC (cohort 6, 10500 mg/m2) of the same compound?
Answer: The AUMC was 13886.7 h2*mg/L.

Question: What about the CL (cohort 6, 10500 mg/m2) of the same compound?
Answer: Its CL is 3.3 L/h.

Question: What about the Clast (cohort 6, 10500 mg/m2) of the same compound?
Answer: Its Clast is 186.4 µg/mL.

Question: What about the Cmax (cohort 6, 10500 mg/m2) of the same compound?
Answer: The Cmax was 313.4 µg/mL.

Question: And the Cmin (cohort 6, 10500 mg/m2)?
Answer: Its Cmin is 0 ng/mL.

Question: What about the “Elimination rate λz” value (cohort 6, 10500 mg/m2) of the same compound?
Answer: Its value is 0.3 h⁻¹.

Question: What about the “Half life/T0.5” value (cohort 6, 10500 mg/m2) of the same compound?
Answer: Its value is 2.6 h.

Question: What about the MRT (cohort 6, 10500 mg/m2) of the same compound?
Answer: Its MRT is 1.7 h.

Question: What about the Tlast (cohort 6, 10500 mg/m2) of the same compound?
Answer: The Tlast was 10.0 h.

Question: And the Tmax (cohort 6, 10500 mg/m2)?
Answer: Its Tmax is 6.0 h.

Question: What about the VSS (cohort 6, 10500 mg/m2) of the same compound?
Answer: Its VSS is 11.7 L.

Question: And the AUC (cohort 7, 12390 mg/m2)?
Answer: The AUC was 2457.2 µg·h/mL.

Question: And the AUMC (cohort 7, 12390 mg/m2)?
Answer: Its AUMC is 14095.2 h2*mg/L.

Question: What about the CL (cohort 7, 12390 mg/m2) of the same compound?
Answer: The CL was 4.4 L/h.

Question: And the Clast (cohort 7, 12390 mg/m2)?
Answer: The Clast was 149.4 µg/mL.

Question: What about the Cmax (cohort 7, 12390 mg/m2) of the same compound?
Answer: The Cmax was 353.6 µg/mL.

Question: What about the Cmin (cohort 7, 12390 mg/m2) of the same compound?
Answer: The Cmin was 0 ng/mL.

Question: What about the “Elimination rate λz” value (cohort 7, 12390 mg/m2) of the same compound?
Answer: Its value is 0.4 h⁻¹.

Question: What about the “Half life/T0.5” value (cohort 7, 12390 mg/m2) of the same compound?
Answer: Its value is 1.7 h.

Question: What about the MRT (cohort 7, 12390 mg/m2) of the same compound?
Answer: The MRT was 1.7 h.

Question: And the Tlast (cohort 7, 12390 mg/m2)?
Answer: Its Tlast is 10.0 h.

Question: And the Tmax (cohort 7, 12390 mg/m2)?
Answer: Its Tmax is 6.0 h.

Question: And the VSS (cohort 7, 12390 mg/m2)?
Answer: The VSS was 11.4 L.

Question: And the AUC (cohort 8, 14500 mg/m2)?
Answer: The AUC was 2864.1 µg·h/mL.

Question: What about the AUMC (cohort 8, 14500 mg/m2) of the same compound?
Answer: The AUMC was 16280.4 h2*mg/L.

Question: And the CL (cohort 8, 14500 mg/m2)?
Answer: Its CL is 4.4 L/h.

Question: What about the Clast (cohort 8, 14500 mg/m2) of the same compound?
Answer: The Clast was 166.0 µg/mL.

Question: What about the Cmax (cohort 8, 14500 mg/m2) of the same compound?
Answer: Its Cmax is 439.2 µg/mL.

Question: What about the Cmin (cohort 8, 14500 mg/m2) of the same compound?
Answer: Its Cmin is 0 ng/mL.

Question: What about the “Elimination rate λz” value (cohort 8, 14500 mg/m2) of the same compound?
Answer: Its value is 0.4 h⁻¹.

Question: What about the “Half life/T0.5” value (cohort 8, 14500 mg/m2) of the same compound?
Answer: Its value is 1.8 h.

Question: What about the MRT (cohort 8, 14500 mg/m2) of the same compound?
Answer: Its MRT is 1.7 h.

Question: And the Tlast (cohort 8, 14500 mg/m2)?
Answer: The Tlast was 10.0 h.

Question: And the Tmax (cohort 8, 14500 mg/m2)?
Answer: The Tmax was 6.0 h.

Question: And the VSS (cohort 8, 14500 mg/m2)?
Answer: The VSS was 11.4 L.

Question: What about the AUCTmax [1] of the same compound?
Answer: Its AUCTmax is 338.2 µg·h/mL and 372.1 µg·h/mL and 311.3 µg·h/mL and 349.1 µg·h/mL.

Question: And the “AUC∞” value [1]?
Answer: Its value is 366.8 µg·h/mL.

Question: And the “AUC∞ / Dose” value [1]?
Answer: Its value is 0.2 mg·h/L/mg.

Question: What about the AUMCTmax [1] of the same compound?
Answer: The AUMCTmax was 1863.8 h2*mg/L and 2050.4 h2*mg/L and 1825.7 h2*mg/L and 1904.2 h2*mg/L.

Question: And the “AUMC∞” value [1]?
Answer: Its value is 2201.9 h2*mg/L.

Question: And the CLO [1]?
Answer: The CLO was 5.1 L/h.

Question: And the Clast [1]?
Answer: The Clast was 15.7 µg/mL and 46.6 µg/mL and 22.8 µg/mL and 33.9 µg/mL.

Question: What about the Cmax [1] of the same compound?
Answer: Its Cmax is 45.8 µg/mL and 54.7 µg/mL and 55.3 µg/mL and 42.2 µg/mL.

Question: And the “Cmax / Dose” value [1]?
Answer: Its value is 0.0 mg/L/mg.

Question: What about the Cmin [1] of the same compound?
Answer: Its Cmin is 0 ng/mL.

Question: And the “Elimination rate λz” value [1]?
Answer: Its value is 0.5 h⁻¹.

Question: And the “Half-life / T0.5” value [1]?
Answer: Its value is 1.3 h.

Question: What about the MRTTmax [1] of the same compound?
Answer: Its MRTTmax is 1.5 h (3×) and 1.9 h.

Question: And the “MRT∞” value [1]?
Answer: The value was 2.0 h.

Question: And the Tlast [1]?
Answer: The Tlast was 10 h (3×) and 9 h.

Question: What about the Tmax [1] of the same compound?
Answer: Its Tmax is 6.0 h (3×) and 8.5 h.

Question: What about the VSSO [1] of the same compound?
Answer: The VSSO was 10.2 L.

Question: What about the VZO [1] of the same compound?
Answer: The VZO was 9.3 L.

Question: What about the AUCTmax [2] of the same compound?
Answer: The AUCTmax was 745.9 µg·h/mL and 761.5 µg·h/mL and 1032.3 µg·h/mL.

Question: And the “AUC∞” value [2]?
Answer: Its value is 826.4 µg·h/mL and 896.6 µg·h/mL and 1215.3 µg·h/mL.

Question: And the “AUC∞ / Dose” value [2]?
Answer: Its value is 0.2 h*mg/L/mg (2×) and 0.3 h*mg/L/mg.

Question: What about the AUMCTmax [2] of the same compound?
Answer: The AUMCTmax was 4278.4 h2*mg/L and 4442.2 h2*mg/L and 6030.7 h2*mg/L.

Question: And the “AUMC∞” value [2]?
Answer: The value was 5242.1 h2*mg/L and 6142.5 h2*mg/L and 8341.9 h2*mg/L.

Question: What about the CLO [2] of the same compound?
Answer: The CLO was 4.5 L/h and 4.2 L/h and 3.1 L/h.

Question: What about the Clast [2] of the same compound?
Answer: The Clast was 40.6 µg/mL and 52.1 µg/mL and 69.7 µg/mL.

Question: And the Cmax [2]?
Answer: The Cmax was 106.3 µg/mL and 106.7 µg/mL and 148.7 µg/mL.

Question: What about the “Cmax / Dose” value [2] of the same compound?
Answer: Its value is 0.0 mg/L/mg.

Question: What about the Cmin [2] of the same compound?
Answer: Its Cmin is 0 ng/mL.

Question: What about the “Elimination rate λz” value [2] of the same compound?
Answer: The value was 0.5 /h and 0.4 /h (2×).

Question: And the “Half-life / T0.5” value [2]?
Answer: The value was 1.4 h and 1.8 h (2×).

Question: What about the MRTTmax [2] of the same compound?
Answer: Its MRTTmax is 1.7 h and 1.8 h (2×).

Question: What about the “MRT∞” value [2] of the same compound?
Answer: The value was 2.3 h and 2.9 h (2×).

Question: What about the Tlast [2] of the same compound?
Answer: The Tlast was 10 h.

Question: And the Tmax [2]?
Answer: Its Tmax is 6.0 h.
